# According to patent US11608313B2, “Adamantylmethylamine derivative and use thereof as pharmaceutical” (TOHOKU UNIVERSITY, priority 2017, dated 2023):
# Assays:
# [1] = system: Alzheimer's disease model mice (APP23 mice); assay: Cognitive function in Alzheimer's disease model mice (Test Example 4); format: in vivo; settings: APP23 mice 12 month-old, 1 mg/kg orally once a day for two months
# Description: The test compound was orally administered in a dissolved state in a 0.5% aqueous solution of carboxymethyl cellulose (vehicle) (the same applies hereunder).
# [2] = system: Kir6.2 channel-deficient mice; assay: Behavioral tests and LTP evaluation in Kir6.2 channel-deficient mice; format: in vivo; settings: Kir6.2-deficient mice, chronic treatment two months
# Method: In order to confirm that TP-014 acts to inhibit Kir6.2 channels, Kir6.2 channel-deficient mice were analyzed by the same behavioral tests as in Test Example 4 (FIGS. 8-1 and 8-2: Y-maze test; FIG. 8-3: new object recognition test; FIG. 8-4: fear conditioning test; FIGS. 8-5 to FIG. 8-7: LTP improvement evaluation; n=5 per group) to identify the action site of TP-014. The results shown in FIGS. 8-1 to 8-7 confirmed that cognitive function impairment was induced in the Kir6.2-deficient mice. […] The analysis methods were the same as in Test Examples 4 to 7. Kir6.2-deficient mice were obtained from Professor Susumu Seino, School of Medicine of Kobe University (Miki T., et al., Proc. Natl. Acad. Sci. U.S.A. 1998, 95, 10402-10406).
# amyloid-β (Aβ) = assay: Aβ aggregation in brain slices of APP23 mice (6E10 and thioflavin staining); format: in vivo; settings: APP23 mice 14 month-old, chronic oral treatment for 2 months, 1 mg/kg
# Method: The amyloid-β (Aβ) hypothesis regarding the pathogenesis of Alzheimer's disease has still been of great importance. It has been confirmed by immunostaining that Aβ aggregation occurs in APP23 mice (14 month-old). 50 μm brain slices were prepared from each of WT (control) and APP23 mice, and stained with 6E10 (anti-Aβ antibody, produced by Abcam) and thioflavin. The other conditions were in line with conventional immunostaining methods. […] Aβ aggregation was suppressed by chronic treatment with TP-014 (chronic oral treatment for 2 months (1 mg/kg)).
# CaMKIV-deficient mice = assay: Tail-suspension test and forced swim test in CaMKIV-deficient mice; format: in vivo; settings: chronic oral treatment for 2 weeks, 1 mg/kg
# Method: By following the same procedure as in Test Example 12, CaMKIV-deficient mice (n=5*per group) were analyzed for CaMKIV induced by Kir6.1 channels.
# The CaMKIV-deficient mice were obtained from professor Hiroyuki Sakagami, Kitasato University School of Medicine (Takao K., et al., PLoS One 2010, 5, e9460).
# Kir6.1 channels = molecular target: T1, Kir6.1 channels (Mus musculus, UniProt P97794); assay: Patch-clamp assay of outward potassium current in Kir6.1 channel-overexpressing cells; format: cell-based; settings: 10 nM
# T1 construct: The plasmid vector having inserted therein Kir6.1 channel cDNA: pcDNA3.1-Kir6.1; expressed in transfected cells; host or cells: Neuro2A (N2A) cells, mouse neuroblastoma
# T1 sequence (P97794 1-424): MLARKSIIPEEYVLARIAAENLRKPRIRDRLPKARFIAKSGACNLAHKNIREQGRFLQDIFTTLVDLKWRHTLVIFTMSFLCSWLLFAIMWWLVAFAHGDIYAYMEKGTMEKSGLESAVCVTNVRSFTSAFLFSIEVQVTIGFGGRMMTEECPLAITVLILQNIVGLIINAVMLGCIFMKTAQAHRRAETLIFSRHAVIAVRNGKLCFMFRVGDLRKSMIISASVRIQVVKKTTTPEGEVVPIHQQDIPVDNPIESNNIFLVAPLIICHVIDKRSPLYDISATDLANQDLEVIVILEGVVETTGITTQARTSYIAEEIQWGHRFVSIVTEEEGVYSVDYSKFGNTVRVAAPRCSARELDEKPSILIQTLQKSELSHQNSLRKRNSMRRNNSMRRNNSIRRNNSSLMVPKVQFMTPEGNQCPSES
# Description: Further, the obtained Kir6.1 channel-overexpressing cells were used to measure potassium current discharged out of the cells by a conventional patch-clamp assay. ATP-sensitive potassium channels (Kir6.1 channels) are localized in the cell membranes of nerve cells. If the channels are inhibited and closed, the threshold of the nerve cell membranes rises to create a condition analogous to temporal generation of action potential, with the result that intracellular potassium current is discharged out of the cells and instead extracellular calcium current enters the cells. Immunoblotting of Kir6.1 channel-overexpressing cells (prepared by the aforementioned method) using an anti-Kir6.1 channel antibody (prepared by a conventional method) (n=5, under the same conditions as in Test Example 1, except for using the anti-Kir6.1 channel antibody) confirmed that Kir6.1 channels were overexpressed in N2A cells (FIG. 18-2; upper: immunoblot staining images; lower: quantitative representations of the signal intensity of staining bands).
smiles,measurement,setting,value
"O=C(N[C@@H](c1ccccc1)[C@H]1[C@H]2C[C@@H]3C[C@](Cl)(C2)C[C@@]1(OC(=O)C(F)(F)F)C3)C(F)(F)F [TP-014, (1S,2R,3S,5S,7S)-5-chloro-2-((R)-phenyl(2,2,2-trifluoroacetamido)methyl)adamantan-1-yl 2,2,2-trifluoroacetate]",cognitive function enhancing effect,[1],significant cognitive function enhancing effect
same,memory impairment and LTP attenuation,[2],not improved
same,Aβ aggregation,amyloid-β (Aβ),suppressed
same,depression-like symptom (increased immobility time),CaMKIV-deficient mice,no effect
same,outwardly flowing potassium current,Kir6.1 channels,suppressed
